In patent publication US20020035139A1, “COX-2 inhibitors and the prevention of the side effects of radiation therapy” (priority 2000, published 2002):

Key:
[1] = cited from earlier work
PC-3 cells = settings: cited from earlier work
[2] = clinical observations during pelvic radiation for prostate carcinoma; assay type: in vivo, patients
Excerpt: The present invention originated with observations made during pelvic radiation for prostate carcinoma.

[3] = PC-3 cells irradiated in the presence or absence of the inhibitor

Question: Which “dry mouth following radiation treatment” value ([1]; head and neck cancer) does the source give for `NCCCNCCSP(=O)(O)O` [Ethiol] here?
Answer: Its value is “decrease the dry mouth”.

Question: What about the acute mucosal effects ([1]; radiotherapy) of the same compound?
Answer: The acute mucosal effects was “does not limit acute mucosal effects”.

Question: For `CS(=O)(=O)Nc1ccc([N+](=O)[O-])cc1OC1CCCCC1` [NS-398], which “prostaglandin (PGE(2)) level in irradiated cells” value (PC-3 cells; PC-3 cells irradiated in the presence of the inhibitor) is on record?
Answer: Its value is “reduced PGE(2) levels”.

Question: And the apoptosis (PC-3 cells; [3])?
Answer: The apoptosis was “no differences”.

Question: What about the cell cycle distribution (PC-3 cells; [3]) of the same compound?
Answer: Its cell cycle distribution is “no differences”.

Question: What does the source list for `CS(=O)(=O)c1ccc(C2=C(c3ccccc3)C(=O)OC2)cc1` [Vioxx, rofecoxib]?
Answer: fatigue associated with radiotherapy [2]: decrease; acute mucosal effects of radiation ([2]; urinary and gastrointestinal tracts, during radiotherapy): decrease the acute mucosal effects of radiation
